# In patent US11129801B2 (SigmaThera SAS, priority 2016, dated 2021):
# Tests used:
# Type in all cases: in vivo
# [1] = system: hippocampal lipid peroxidation; assay: Hippocampal lipid peroxidation (LPO) measurement, Aβ25-35 mouse model; conditions: for hippocampal LPO levels: 1 mg/kg
# Experimental: (§1) For each of Experiments 1-4, on day 7, all animals were tested for the spontaneous alternation performance in the Y-maze test, an index of spatial working memory. On day 8 and 9, the contextual long-term memory of the animals was assessed using the step-through type passive avoidance procedure. On day 9, immediately after the retention session, animals were sacrificed by decapitation and the hippocampus and cortex dissected out. Lipid peroxidation was analyzed in the hippocampus, whereas neuroinflammation, apoptosis, amyloid burden and hyperphosphorylation of tau protein were analyzed in cortex.
# Sacrifice: At the end of the passive avoidance retention session, on day 9, the animals were sacrificed by decapitation. The hippocampi and frontal cortex were dissected out and kept at −80° C. until the measurement of lipid peroxidation and other markers.
# Lipid peroxidation measurement: At day 24, 6 hippocampi from each group were used. After thawing, homogenates were homogenized in cold methanol ( 1/10 w/v), centrifuged at 1,000 g during 5 min and the supernatant placed in Eppendorf tube. The reaction volume of each homogenate was added to FeSO4 1 mM, H2SO4 0.25 M, xylenol orange 1 mM and incubated for 30 min at room temperature. After reading the absorbance at 580 nm (A5801), 10 μl of cumene hydroperoxyde (CHP) 1 mM was added to the sample and incubated for 30 min at room temperature, to determine the maximal oxidation level. The absorbance was measured at 580 nm (A5802). The level of lipid peroxidation was determined as CHP equivalents according to: CHPE=A5801/A5802×[CHP (nmol)] and expressed as CHP equivalents per wet weight of tissue and as percentage of control group data (Veh-treated Sc.Aβ-administered mice).
# [2] = system: Aβ25-35 mouse model of Alzheimer's disease; assay: Spontaneous alternation in the Y-maze, Aβ25-35 mouse model
# Experimental: The compound efficacy was evaluated 7 days after the peptide administration on the attenuation of the Aβ25-35-induced learning deficits (spatial working memory using the spontaneous alternation in the Y-maze test, and contextual long-term memory using the passive avoidance test).
# The mice were tested 7 days post injection or at the indicated time points.
# (§2) In Experiment 2, twelve mice per experimental group were administered Sc.Aβ or Aβ25-35-amyloid peptide on day 0 by i.c.v. injection. […] Animals were tested at day 7 and later.
# The synergy/additivity/antagonism was evaluated by calculating the combination index. […] Animals were then tested at day 7 and later.
# Animals were tested at day 7 and later.
# as §1
# The homogeneous oligomeric preparation of Aβ25-35 peptide was performed according to the AMYLGEN's own procedure. Each mouse was anesthetized with isoflurane 2.5% and injected i.c.v. with Aβ25-35 peptide (9 nmol/mouse) or Sc.Aβ peptide (9 nmol/mouse), in a final volume of 3 μl/mouse, according to the previously described method (Maurice T, et al. (1996). Brain Res. 706(2): 181-193, Maurice T, et al. (1998) Neuroscience 83(2): 413-428, Meunier J, et al. (2006) British J. Pharmacol. 149(8): 998-1012, Villard V, et al. (2009) Neuropsychopharmacology 34(6): 1552-1566, Villard V, et al. (2011) J. Pharmacol. Sci. 115(3): 279-292).
# Animals: Male Swiss mice, 6 weeks old and weighing 30-35 g, from JANVIER (Saint Berthevin, France), were kept for housing and experiments took place within the animal facility building of the University of Montpellier 2 (CECEMA, Office of Veterinary Services agreement #B-34-172-23). Animals were housed in groups with access to food and water ad libitum, except during behavioral experiments. They were kept in a temperature and humidity controlled animal facility on a 12 h/12 h light/dark cycle (lights off at 07:00 pm). Mice were numbered by marking their tail using permanent markers. All animal procedures were conducted in strict adherence to the European Union directive of Sep. 22, 2010 (2010/63/UE). Diagnostic summary reports of JANVIER were annexed to the study report.
# Spontaneous alternation performance: Immediate working memory performance was assessed by recording spontaneous alternation behavior during a single session in a Y-maze as described previously (Itoh J, et al. (1993) Eur J Pharmacol 236(3): 341-345; Hiramatsu M and Inoue K (1999) Br J Pharmacol 127(3): 655-660). The Y-maze is made of grey polyvinylchloride. Each arm of the Y-maze was 40 cm long, 3 cm wide, and 13 cm high at the bottom, 10 cm wide at the top, and converging at an equal angle. Each mouse was placed at the end of one arm and allowed to move freely through the maze during an 8 min session. The series of arm entries, including possible returns into the same arm, was checked visually. An alternation was defined as entries into all three arms on consecutive occasions. The number of maximum alternations is therefore the total number of arm entries minus two and the percentage of alternation was calculated as (actual alternations/maximum alternations)×100. Parameters included the percentage of alternation (memory index) and total number of arm entries (exploration index).
# Aβ1-42 = assay: ELISA of cortical Aβ1-42, Aβ25-35 mouse model; conditions: Experiment 2, post-treatment
# Experimental: as §2, §1
# (§3) Enzyme-linked immunosorbant assay (ELISA) assays: Contents in GFAP, Caspase 12, Amyloid-beta 1-40, Amyloid-beta 1-42, Total Tau, and pTau on Ser199 were analyzed by using commercial ELISA assay kit. • GFAP: Supplier: USCNK #Ref: SEA068Mu • Total Tau: Supplier: Novex #Ref: KMB7011 • pTau (S199): Supplier: Novex #Ref: KMB7041 • Amyloid beta 1-40: Supplier: Novex #Ref: KMB3481 • Amyloid beta 1-42: Supplier: Novex #Ref: KMB3441 • Caspase-12: Supplier: LSBio #Ref: LS-F11023 • BAX: Supplier: Euromedex#Ref: SEB343Mu • BCL2: Supplier: Euromedex #Ref: SEA778Mu […]
# caspase 12 = assay: ELISA of cortical caspase 12, Aβ25-35 mouse model; conditions: Experiment 2, post-treatment, 1 mg/kg
# Experimental: as §2, §1, §3
# GFAP = assay: ELISA of cortical GFAP, Aβ25-35 mouse model; conditions: Experiment 2, post-treatment, 1 mg/kg
# Experimental: as §2, §1, §3
structure (smiles),measurement,setting,value
"CCC(C/C=C/c1ccccc1)(c1ccccc1)N(C)CC1CC1 (single isomer, unassigned; (+)) [igmesine, (+)-(E)-N-(cyclopropylmethyl)-N-methyl-3,6-diphenylhex-5-en-3-amine]",hippocampal LPO levels,"[1]; Experiment 1, pre-treatment",fully normalized
same,hippocampal LPO levels,"[1]; Experiment 2, post-treatment",fully normalized
same,synergy on hippocampal LPO with donepezil,"[1]; Experiment 3, igmesine 0.1 mg/kg + donepezil […]",did synergize
same,synergy on hippocampal LPO with memantine,"[1]; Experiment 3, igmesine 0.1 mg/kg + memantine",synergy was not present
same,prevention of Aβ25-35-induced spontaneous alternation deficits,"[2]; Experiment 1, i.p. 20 min before Aβ25-35, 0.1, 0.3, 1 mg/kg",dose-dependently prevented
same,prevention of Aβ25-35-induced spontaneous alternation deficits,"[2]; Experiment 2, post-treatment i.p. day 1 to day 6",prevented the Aβ25-35-induced deficits at the highest doses tested
same,"highest sub-active dose, spontaneous alternation","[2]; Experiment 3, i.p.",0.1 mg/kg
same,cortical Aβ1-42 elevation,Aβ1-42,fully normalized
same,cortical caspase 12 elevation,caspase 12,fully normalized
same,cortical GFAP elevation,GFAP,fully normalized
